The source of these data is patent US20190364895A1, “ANTIMICROBIAL COMPOUNDS OR PRECURSORS THEREOF COMRPISING ONE OR MORE CATIONIC CENTERS AND A COATING-INCORPORATION GROUP” (Exigence Technologies Inc., priority 2016, published 2019).

This experiment relates to E. coli (ATCC 25922). The experiment can be described thus: Biocidal activity of coated hard-substrates, ISO 22196 methodology. It counts as cell-based. As to conditions: 5% FBS and MH Broth. The protocol:
Tables 27 to 35 summarize the biocidal activity of the coated hard-substrates as assessed using the ISO 22196 methodology. Briefly, control and chlorinated samples of the coated hard-substrates (chlorinated at 200 ppm for 10 minutes) were challenged with E. coli (ATCC 25922). Using a pipette, 200 μL of test inoculum were transferred at a concentration of 1-2×10^6 CFU/mL (in sterile DI water, 5% fetal bovine serum or 100% Mueller-Hinton broth) onto a 50 mm×50 mm plastic test surface in a sterile petri dish. The test inoculum was covered with a piece of PET (polyethylene terephthalate) film that measured 40 mm×40 mm. A slight pressure was applied to the film so that the test inoculum spread to the edges. The test inoculum was kept within the edges of the film and was capped with the lid of the petri dish. Contact times for the samples were 10, 30 and 60 minutes. Then the samples were quenched with 10 mL of sterile 0.05 M sodium thiosulfate solution to remove all oxidative chlorine in the petri dish. This quenching step was followed by repetitive washing and 1 minute of sonication. […] The plates were incubated at 37° C. for about 16 hours to about 18 hours, and viable bacterial colonies were recorded for kill kinetics analysis. The logarithm reduction was determined as follows: […]

Each structure is given as a SMILES string.

As for `CCCC[P+](C)(CCCC[P+](CCCCCCCCCC[N+](C)(CCCN)CCCN)(c1ccccc1)c1ccccc1)c1ccccc1.[Br-].[Br-].[Br-]` (centres unmarked) [C4-P—C4-P—C10-BIS-C3-NH2], the “biocidal activity (in words)” value is recorded as “poor biocidal activity”. The value for `CC1(C)CC([N+](C)(C)CCCC[P+](CCCC[P+](CCCC[N+](C)(CCCN)CCCN)(c2ccccc2)c2ccccc2)(c2ccccc2)c2ccccc2)CC(C)(C)N1.[Br-].[Br-].[Br-].[Br-]` [PIP—C4-P—C4-P—C4-BIS-C3-NH2] was “had biocidal activity”.
